In PMC6599891 (Journal of molecular biology, 2019):
Numbering of substitutions follows the chain as printed. Numbers in names are those of the source. Read-outs that look alike come from different tables or passages of the source.

Assays:
EmrE [1] = molecular target: T1, EmrE (Escherichia coli, UniProt P23895, S64V); test: biochemical
EmrE [2] = molecular target: EmrE (Escherichia coli, UniProt P23895, A59L); test: biochemical
EmrE [3] = molecular target: EmrE (Escherichia coli, UniProt P23895); test: [3H]-TPP+ saturation binding, purified protein in DDM
EmrE [4] = molecular target: EmrE (Escherichia coli, UniProt P23895, G90V); test: biochemical
EmrE [5] = molecular target: EmrE (Escherichia coli, UniProt P23895, M21G); test: biochemical
EmrE [6] = molecular target: EmrE (Escherichia coli, UniProt P23895, I101G); test: biochemical
EmrE [7] = molecular target: EmrE (Escherichia coli, UniProt P23895, N102A); test: biochemical
EmrE [8] = molecular target: T1, EmrE; test: biochemical; remark: listed apart in the source
EmrE [9] = molecular target: EmrE (Escherichia coli, UniProt P23895, N102V); test: biochemical
[10] = molecular target: the molecule itself; test: 1H-15N TROSY-HSQC NMR (peak doubling of the asymmetric homodimer)

For `CC[P+](c1ccccc1)(c1ccccc1)c1ccccc1` [EtTPP^+], the Kd (EmrE [1]) was 11.4 ± 0.1 µM.

`c1ccc([P+](c2ccccc2)(c2ccccc2)c2ccccc2)cc1` [TPP^+] gave a Kd (EmrE [2]) of 23.4 ± 2.4 nM, a Kd (EmrE [3]) of 0.8 ± 0.1 nM and a Kd (EmrE [4]) of 5.3 ± 0.6 nM. For the same molecule, the Kd (EmrE [5]) was 4 ± 0.7 nM, the Kd (EmrE [6]) was 2.6 ± 1.3 nM and the Kd (EmrE [7]) was 2.3 ± 0.4 nM. For the same molecule, the Kd (EmrE [8]) was 1 ± 0.6 nM and the Kd (EmrE [9]) was 1.2 ± 0.2 nM.

In the case of `C[P+](c1ccccc1)(c1ccccc1)c1ccccc1` [MeTPP^+], the Kd (EmrE [1]) is reported as 60 ± 10 µM.

B1: wild type EmrE (natural protein)
chain: MNPYIYLGGAILAEVIGTTLMKFSEGFTRLWPSVGTIICYCASFWLLAQTLAYIPTGIAYAIWSGVGIVLISLLSWGFFGQRLDLPAIIGMMLICAGVLIINLLSRSTPH
B1: binds [10].

B2: EmrE I101G (natural protein)
chain: B1 chain with I101G
B2: binds [10].

B3: EmrE N102A (natural protein)
chain: B1 chain with N102A
B3: binds [10].

B4: EmrE A59L (natural protein)
chain: B1 chain with A59L
B4: binds [10].

B5: EmrE N102V (natural protein)
chain: B1 chain with N102V
B5: binds [10].

B6: EmrE M21G (natural protein)
chain: B1 chain with M21G
B6: binds [10].

B7: S64V-EmrE (natural protein)
chain: B1 chain with S64V
B7: binds [10].
